Structures can show the parent of a compound that is named as a salt. One block for each molecule: values may come before it.
What was measured:
Assay type in all cases: physicochemical
[1] = Appearance and phase separation of octreotide formulations in SAIB/NMP; conditions: for appearance when combined with SAIB/NMP solution: octreotide about 6%
Protocol: A solution of sucrose acetate isobutyrate (SAIB) in N-methyl-2-pyrrolidone (NMP) at a concentration of 80% by weight was prepared by combining 2 g NMP with 8 g SAIB followed by gentle mixing. A clear, low viscosity solution was obtained. Then 60 mg octreotide acetate was dissolved in 100 μL NMP which was combined with 900 μL SAIB solution in NMP (80%) and mixed well to obtain a formulation containing about 6% of octreotide acetate.
Since both SAIB and octreotide acetate were quite soluble in NMP, a clear solution was expected after two solutions in the same solvent (NMP) were mixed. […] Therefore, such a formulation is not suitable for preparation of a stable, single-phase formulation of octreotide in SAIB/NMP solution.
(§1) Octreotide acetate (OCT-Ac), octreotide dodecyl sulfate (OCT-SDS) and octreotide docusate (OCT-DSS) complex powders were dissolved in NMP. Then the solutions containing various salt forms of octreotide were thoroughly mixed with SAIB solution in NMP (90% w/w).
Chunky solid precipitates were observed and an inhomogeneous formulation was obtained as observed in Example 1. This inhomogeneous formulation will block needles and is not suitable for injection. […] This formulation can be prepared immediately prior to administration or suitable for storage for a period of time by adjusting the formulation parameters. […] This formulation may be packaged and stored for a long period of time at room temperature.
Octreotide acetate (OCT-Ac) and octreotide dodecyl sulfate (OCT-SDS) complex powders were dissolved in NMP. Then the solutions containing various salt forms of octreotide were thoroughly mixed with SAIB solution in NMP (90% w/w).
A chunky aggregate was formed at the bottom of the formulation (FIG. 1(a)). This inhomogeneous formulation is clearly not suitable for injection to form a consistent depot system in situ for controlled release.

[2] = In vitro release of doxorubicin from SAIB/NMP formulations; conditions: for Release (%) of DOX: 24 h, PBS 7.4, 37° C., 6% DOX loading
Protocol: Formulations were prepared using doxorubicin-HCl (DOX-HCl) and doxorubicin docusate (DOX-DSS) complex powders. Formulations were prepared by mixing DOX-HCL and DOX-DSS with SAIB solution in NMP to achieve 6% DOX loading as shown in Table 6.
An aliquot of the suspension was used for studying the in vitro release of DOX from different formulations. About 0.1 mL of each DOX formulation was injected into 3 mL of releasing buffer (PBS 7.4, containing 0.1% sodium azide) in a 4 mL glass vial. The vials were incubated at 37° C. and sampled at various time points. At each time point, 2 mL of release medium was removed and replaced with 2 mL of fresh release medium. The collected samples were analyzed for peptide concentration and integrity by HPLC using an YMC-Pack ODS-120A column. Triplicate samples were used for each formulation.

[3] = Stability of the octreotide in formulations at room temperature over time (HPLC); conditions: SAIB/NMP formulation
Excerpt: Those peaks were not observed from the formulation at the beginning, indicating the generation of impurities or degradation products of the octreotide. The intensity of these peaks increased with the increase of time, while the peak for octreotide decreases over time. […] Therefore, this type of formulation must be modified to be suitable for controlled release delivery of various bioactive substances.
as §1
After two hours, about 4% of the octreotide was degraded or reacted.

[4] = In vitro release of octreotide from SAIB/NMP formulations; conditions: PBS 7.4, 37° C., SAIB/NMP formulation, about 6% octreotide
Protocol: (§2) In another embodiment, the release rate of the compositions of the present invention was determined in vitro. About 0.1 mL of each formulation was injected into 3 mL of releasing buffer (PBS 7.4, containing 0.1% sodium azide) in a 4 mL glass vial. The vials were incubated at 37° C. and sampled at various time points. At each time point, 2 mL of release medium was removed and replaced with 2 mL of fresh release medium. The collected samples were analyzed for bioactive substance concentration and integrity by HPLC using an YMC-Pack ODS-120A column or equivalent. Triplicate samples were used for each formulation.
An aliquot of the suspension was used for the in vitro release. About 0.1 mL of each formulation containing octreotide was injected into 3 mL of releasing buffer (PBS 7.4, containing 0.1% sodium azide) in a 4 mL glass vial. The vials were incubated at 37° C. and sampled at various time points. At each time point, 2 mL of release medium was removed and replaced with 2 mL of fresh release medium. The collected samples were analyzed for peptide concentration and integrity by HPLC using an YMC-Pack ODS-120A column. Triplicate samples were used for each formulation.

[5] = Integrity of GEN-DSS SAIB/NMP pellets in PBS buffer; conditions: about 6% and 2% GEN-DSS with 90% SAIB in NMP, incubated at 37° C.
Protocol: Formulations containing about 6% and 2% GEN-DSS with 90% SAIB in NMP were prepared. Injections of roughly 100 mg were made into vials with 3 mL PBS buffer and 0.1% NaN3. Gel-like pellets were formed at room temperature.

[6] = In vitro release of leuprolide from SAIB/NMP formulations; conditions: after two weeks; PBS 7.4, 37° C.; SAIB/NMP formulation, about 6% leuprolide
Protocol: as §2
Formulations were prepared by mixing leuprolide acetate (LA-Ac), leuprolide dodecyl sulfate (LA-SDS), leuprolide docusate (LA-DSS) and leuprolide oleate (LA-OL) complex powders with SAIB solution in NMP (90% w/w).
An aliquot of the suspension was used for the in vitro release. About 0.1 mL of each leuprolide formulation was injected into 3 mL of releasing buffer (PBS 7.4, containing 0.1% sodium azide) in a 4 mL glass vial. The vials were incubated at 37° C. and sampled at various time points. At each time point, 2 mL of release medium was removed and replaced with 2 mL of fresh release medium. The collected samples were analyzed for peptide concentration and integrity by HPLC using an YMC-Pack ODS-120A column. Triplicate samples were used for each formulation.

[7] = Phase behaviour of lysozyme SAIB/NMP pellets in PBS buffer; conditions: about 6% with 90% SAIB in NMP, shaker at 37° C.
Protocol: Formulations containing about 6% LYZ and LYZ-DSS (85.2% LYZ) with 90% SAIB in NMP were prepared. Injections of roughly 100 mg were made into vials with 3 mL PBS buffer and 0.1% NaN3. Gel-like pellets were formed at room temperature and put on a shaker at 37° C. […] An improved depot system was achieved the complexation of lysozyme with amphiphilic molecule DSS.

[8] = In vitro release of pramipexole from SAIB formulations; conditions: PBS buffer, 37° C., about 6% PPL in 90% SAIB in NMP
Protocol: Formulations containing about 6% PPL of different salt forms were prepared by mixing PPL with 90% SAIB solutions in NMP. Injections of roughly 100 mg were made into vials with 3 mL PBS buffer and 0.1% NaN3. Gel-like pellets formed and the vials were placed on a shaker at 37° C. The release of PPL was measured by removing 2 mL of the release media at specified times and replacing it with 2 mL of fresh buffer. The concentration in the release media was determined by reverse phase HPLC.

Molecule: COc1cccc2c1C(=O)c1c(O)c3c(c(O)c1C2=O)C[C@@](O)(C(=O)CO)C[C@@H]3O[C@H]1C[C@H](N)[C@H](O)[C@H](C)O1 [DOX-HCl, doxorubicin hydrochloride]
Release (%) of DOX [2]: More than 70%

Molecule: C[C@@H](O)[C@@H]1NC(=O)[C@H](CCCCN)NC(=O)[C@@H](Cc2c[nH]c3ccccc23)NC(=O)[C@H](Cc2ccccc2)NC(=O)[C@@H](NC(=O)[C@H](N)Cc2ccccc2)CSSC[C@@H](C(=O)N[C@H](CO)[C@@H](C)O)NC1=O [OCT-Ac, octreotide acetate]
octreotide degraded ([3]; after 5 days): More than half
octreotide degraded or reacted ([3]; after two hours): about 4%
appearance on mixing with SAIB solution in NMP ([1]; Example 1, about 6% octreotide acetate, SAIB solution in NMP (80%)): opaque suspension with chunky aggregates
phase separation on standing ([1]; Example 1, room temperature overnight): two distinguished phases
phase separation on standing ([1]; Example 1, room temperature, within a few hours): appearance of phase separation was observed
appearance when combined with SAIB/NMP solution ([1]; Example 7, SAIB about 70%): phase separation occurred immediately
appearance when combined with SAIB/NMP solution ([1]; Example 8, SAIB about 80%): phase separation occurred even faster
octreotide released ([4]; after two weeks): more than 90%
octreotide released ([4]; within 24 hours): More than 60%

Molecule: CCCCC(CC)COC(=O)CC(C(=O)OCC(CC)CCCC)S(=O)(=O)O.COc1cccc2c1C(=O)c1c(O)c3c(c(O)c1C2=O)CC(O)(C(=O)CO)CC3OC1CC(N)C(O)C(C)O1 (centres unmarked) [DOX-DSS, doxorubicin docusate]
Release (%) of DOX [2]: Less than 8%
reduction of the initial burst release of DOX by complexation with DSS ([2]; versus DOX-HCl formulation): ~10 fold

Molecule: Gentamycin Docusate [GEN-DSS]
behaviour of gel-like pellets [5]: began to disintegrate and fall apart within a few hours

Molecule: CCNC(=O)[C@@H]1CCCN1C(=O)[C@H](CCCNC(=N)N)NC(=O)[C@H](CC(C)C)NC(=O)[C@@H](CC(C)C)NC(=O)[C@H](Cc1ccc(O)cc1)NC(=O)[C@H](CO)NC(=O)[C@H](Cc1c[nH]c2ccccc12)NC(=O)[C@H](Cc1c[nH]cn1)NC(=O)[C@@H]1CCC(=O)N1 [LA-Ac, leuprolide acetate]
leuprolide released [6]: almost all

Molecule: Lysozyme Docusate [LYZ-DSS]
phase behaviour of pellets [7]: remained one phase

Molecule: lysozyme [LYZ]
phase behaviour of pellets [7]: phase separated after one day

More lines, now with the values ahead:

appearance when combined with SAIB/NMP solution ([1]; Example 7, SAIB about 70%): transparent uniform solution
Molecule: octreotide docusate [OCT-DSS]

pramipexole released ([8]; after one week): about 90%
pramipexole released ([8]; within 24 hours): More than 60%
Molecule: CCCN[C@H]1CCc2nc(N)sc2C1.Cl [PPL-HCl]

appearance when combined with SAIB/NMP solution ([1]; Example 7, SAIB about 70%): homogeneous suspension
phase separation after 24 hours ([1]; Example 8, SAIB about 80%, room temperature, 24 h): no significant phase separation
appearance when combined with SAIB/NMP solution ([1]; Example 8, SAIB about 80%): homogeneous milky suspension
Molecule: octreotide dodecyl sulfate [OCT-SDS]

leuprolide released [6]: almost all
Molecule: leuprolide oleate [LA-OL]

— US8586103B2, “Non-polymeric compositions for controlled drug delivery” (Foresee Pharmaceuticals, LLC, priority 2008, dated 2013)
